Experimental data as given in US20110319392A1, “Thiazole Sulfonamide And Oxazole Sulfonamide Kinase Inhibitors” (priority 2009, published 2011).
pIC50: −log10 of the molar value. Counter-ions that a name gives are not always drawn.

Key:
A375P F11s tumor cells = assay: Cell growth inhibition assay (CellTiter-Glo), A375P F11s; type: cell-based, Human; conditions: for pIC50: Homo sapiens
Description: Human breast tumor cells (BT474) were cultured in RPMI (Mediatech […]), containing 10% FBS (JRH Biosciences 12176) and 1% penicillin-streptomycin (Invitrogen 15140). Human head and neck tumor cells (HN5) were cultured in high glucose DMEM (Mediatech 50-013-PB) containing 10% FBS and 1% penicillin-streptomycin. Human colon tumor cells (Colo205) were cultured in RPMI (Mediatech 50-020-PB) containing 10% FBS and 1% penicillin-streptomycin. Human melanoma cancer cells (SK-MEL-28) were cultured in EMEM with nonessential amino acids (Mediatech 50-011-PB) containing 10% FBS, 1% sodium pyruvate (JT Baker 3354-04), and 1% penicillin-streptomycin. Human melanoma cancer cells (A375P F11s) were cultured in RPMI (Mediatech 50-020-PB) containing 10% FBS, 1% sodium pyruvate, and 1% penicillin-streptomycin. Human colon cancer cells (HT-29) were cultured in high glucose DMEM (Mediatech 50-013-PB) containing 10% FBS and 1% penicillin-streptomycin. Human melanoma cancer cells (SK-MEL-3) were cultured in McCoy's 5A (50-025-PB) containing 15% FBS, and 1% penicillin-streptomycin. All cell lines were maintained at 37° C. in a humidified 5% CO2, 95% air incubator. Cells were harvested using trypsin/EDTA (Invitrogen 25200), counted using a haemocytometer, and plated. For 96-well assays (using white full-area NUNC plates cat. #136102), cells were plated in 105 μL at the following densities (cells/well): HNS, 500; Colo 205, 500; SK-MEL-28, 500; A375P F11s, 500; HT-29, 500; SK-MEL-3, 500; and BT474, 3000. For 384-well assays (white full-area NUNC plates, cat. #781080), cells were plated in 48 μL at the following densities (cells/well): HNS, 500; Colo205, 500; SK-MEL-28, 500; A375P F11s, 500; HT-29, 500; SK-MEL-3, 500; and BT474, 2000.
The next day, compounds were diluted as follow: For 96-well assays, 13.5 μL of compound in DMSO were diluted using nine (9) serial 1:3 dilutions of 4.5 μL in 9 of DMSO. Medium (270 μL/well of RPMI with 10% FBS and 1% penicillin-streptomycin) was added to the plates. Aliquots (7 μL) were added to cells in the final assay giving a final DMSO concentration of 0.2%. For 384-well assays, 15 μL of compound in DMSO were diluted using nine (9) serial 1:3 dilutions of 5 μL in 10 μL of DMSO, followed by a further dilution of 5 μL of compound with 95 μL of medium, of which 2 μL were added to cells in the final assay giving a final DMSO concentration of 0.2%. Cells were incubated at 37° C., 5% CO2 for 3 days.
Total ATP was measured (as a surrogate estimate of cell number) using CellTiter-Glo® reagent (Promega G7571). Briefly, plates were removed from the incubator and allowed to equilibrate to room temperature for 30 minutes. CellTiter-Glo® (25 μL or 55 μL for 384-well or 96-well assays, respectively) reagent was added to each well and plates were shaken on an orbital plate shaker for 2 minutes. Plates were incubated without shaking for a further 30 minutes and read on an LJL Analyst GT reader in luminometer mode with an integration time of 0.5 seconds per well. Percent inhibition of cell growth was calculated relative to DMSO vehicle-treated control wells. Concentration of compound required to give 50% inhibition of vehicle-treated control cell growth (IC50) was interpolated using a 4-parameter fit for determining IC50 using the following equation: Y=A +((B−A)/(1+((C/X)̂D))) where […].

B-Raf = B-Raf (Homo sapiens, UniProt P15056); assay: B-Raf Accelerated MEK ATPase assay (BRAMA), Method A or B; type: biochemical
Procedure, shortened: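 ADP production, initiated by catalytic activated Raf with unphosphorylated MEK, is followed by NADH oxidation through a PK/LDH coupled system. Method B differs from the kinetic Method A by a single end-point read and 150 nM final MEK.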

[1] = Method B: final MEK 150 nM, single end point read

Chain of B-Raf (P15056 whole entry): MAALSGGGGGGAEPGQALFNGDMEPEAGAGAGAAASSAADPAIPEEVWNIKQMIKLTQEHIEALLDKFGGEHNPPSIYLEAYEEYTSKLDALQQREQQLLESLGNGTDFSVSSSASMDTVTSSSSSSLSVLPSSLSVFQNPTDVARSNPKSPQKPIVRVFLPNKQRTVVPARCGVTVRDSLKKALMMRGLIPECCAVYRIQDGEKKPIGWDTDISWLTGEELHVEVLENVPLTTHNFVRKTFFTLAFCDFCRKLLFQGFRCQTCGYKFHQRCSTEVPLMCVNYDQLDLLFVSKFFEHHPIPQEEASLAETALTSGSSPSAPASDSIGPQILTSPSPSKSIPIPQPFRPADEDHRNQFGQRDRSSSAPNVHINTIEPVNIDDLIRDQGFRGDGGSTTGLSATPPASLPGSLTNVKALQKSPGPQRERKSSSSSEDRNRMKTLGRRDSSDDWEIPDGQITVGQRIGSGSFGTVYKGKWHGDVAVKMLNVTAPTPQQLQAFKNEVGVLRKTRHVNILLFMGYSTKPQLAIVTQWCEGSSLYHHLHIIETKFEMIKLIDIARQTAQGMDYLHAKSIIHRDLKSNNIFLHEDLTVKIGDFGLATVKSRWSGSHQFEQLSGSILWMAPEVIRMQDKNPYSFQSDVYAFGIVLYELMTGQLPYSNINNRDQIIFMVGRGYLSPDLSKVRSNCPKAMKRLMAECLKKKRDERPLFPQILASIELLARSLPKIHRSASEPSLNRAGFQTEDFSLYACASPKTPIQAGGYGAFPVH

Row | pIC50 (B-Raf; Method A) | pIC50 (A375P F11s tumor cells) | pIC50 (B-Raf; [1]) | Compound | Activity in A375P F11s Tumor Cells (A375P F11s tumor cells)
1 | 6.00 to 7.00 |  |  | CCNc1nc(-c2cccc(NS(=O)(=O)c3ccccc3)c2)c(-c2ccnc(Nc3ccc(OCCN4CCCC4)c(F)c3)n2)s1 [Example 1, N-(3-(2-(Ethylamino)-5-{2-[(3-fluoro-4-[[2-(1-pyrrolidinyl)ethyl]oxy}phenyl)amino]-4-pyrimidinyl}-1,3-thiazol-4-yl)phenyl]benzenesulfonamide] | ++ (activity of between 100 nM and 1 μM in A375P F11s tumor cells)
2 |  | 6.00 to 7.00 | > 7.00 | CC(=O)N1CCN(c2ccc(Nc3nccc(-c4sc(C(C)C)nc4-c4cccc(NS(=O)(=O)c5cn(C)cn5)c4)n3)cn2)CC1 [Example 36] | 
3 |  | 6.00 to 7.00 | > 7.00 | CCOc1ccc(Nc2nccc(-c3sc(C(C)C)nc3-c3ccc(F)c(NS(=O)(=O)c4c(F)cccc4F)c3)n2)cc1N1CCN(CCF)CC1 [Example 98] | 
4 |  | > 7.00 | > 7.00 | CC(C)c1nc(-c2cccc(NS(=O)(=O)c3c(F)cccc3F)c2)c(-c2ccnc(Nc3ccc(N4CCOCC4)c(C(=O)O)c3)n2)s1 [Example 14, 5-({4-[4-(3-{[(2,6-Difluorophenyl)sulfonyl]amino}phenyl)-2-(1-methylethyl)-1,3-thiazol-5-yl]-2-pyrimidinyl}amino)-2-(4-morpholinyl)benzoic acid] | 
5 |  | > 7.00 | > 7.00 | CCNc1nc(-c2cccc(NS(=O)(=O)c3c(F)cccc3F)c2)c(-c2ccnc(Nc3ccc(N4CCOCC4)nc3)n2)s1 [Example 152] | 
6 |  | 6.00 to 7.00 | > 7.00 | Cc1cc(Nc2nccc(-c3sc(C(C)C)nc3-c3ccc(F)c(NS(=O)(=O)c4c(F)cccc4F)c3)n2)ccn1 [Example 116] | 
7 |  | 6.00 to 7.00 | 6.00 to 7.00 | CC(C)c1nc(-c2cccc(NS(=O)(=O)C3CCCCC3)c2)c(-c2ccnc(Nc3ccc(N4CCOCC4)c(F)c3)n2)s1 [Example 38] | 
8 |  | > 7.00 | > 7.00 | COc1ccc(S(=O)(=O)Nc2cccc(-c3nc(C(C)C)sc3-c3ccnc(Nc4ccc(N5CCOCC5)nc4)n3)c2)cn1 [Example 49] | 
9 |  | > 7.00 | > 7.00 | COc1ccc(Nc2nccc(-c3sc(C(C)C)nc3-c3cccc(NS(=O)(=O)c4c(F)cccc4F)c3)n2)cc1N(C)C [Example 18, N-{3-[5-(2-{[3-(Dimethylamino)-4-(methyloxy)phenyl]amino}-4-pyrimidinyl)-2-(1-methylethyl)-1,3-thiazol-4-yl]phenyl}-2,6-difluorobenzenesulfonamide trifluoroacetate] | 
10 |  | > 7.00 | > 7.00 | O=S(=O)(Nc1cccc(-c2nc(N3CCOCC3)sc2-c2ccnc(Nc3ccc(N4CCOCC4)nc3)n2)c1Cl)c1c(F)cccc1F [Example 146] | 
11 |  | 6.00 to 7.00 | > 7.00 | CN1CCN(c2nc(-c3ccc(F)c(NS(=O)(=O)c4c(F)cccc4F)c3)c(-c3ccnc(Nc4ccc(N5CCOCC5)nc4)n3)s2)CC1 [Example 126] | 
12 |  | 6.00 to 7.00 | > 7.00 | COc1cc(N2CCN(CCS(C)(=O)=O)CC2)c(C)cc1Nc1nccc(-c2sc(C(C)C)nc2-c2cccc(NS(=O)(=O)c3c(F)cccc3F)c2)n1 [Example 19] | 
13 |  | > 7.00 | > 7.00 | CS(=O)(=O)CCN1CCN(c2ccc(Nc3nccc(-c4oc(N5CCCC5)nc4-c4cccc(NS(=O)(=O)c5c(F)cccc5F)c4F)n3)cc2F)CC1 [Example 167] | 
14 |  | > 7.00 | > 7.00 | CC(=O)N1CCN(c2ccc(Nc3nccc(-c4sc(C(C)C)nc4-c4cccc(NS(=O)(=O)c5ccccc5F)c4)n3)cn2)CC1 [Example 12, N-{3-[5-(2-{[6-(4-Acetyl-1-piperazinyl)-3-pyridinyl]amino}-4-pyrimidinyl)-2-(1-methylethyl)-1,3-thiazol-4-yl]phenyl}-2-fluorobenzenesulfonamide] | 
15 |  | 6.00 to 7.00 | > 7.00 | O=S(=O)(Nc1cc(-c2nc(N3CCOCC3)sc2-c2ccnc(Nc3ccc(N4CCOCC4)nc3)n2)ccc1F)c1c(F)cccc1F [Example 121] | 
16 |  | > 7.00 | > 7.00 | CS(=O)(=O)c1cccc(Nc2nccc(-c3sc(N4CCOCC4)nc3-c3cccc(NS(=O)(=O)c4c(F)cccc4F)c3Cl)n2)c1 [Example 145] | 
17 |  | 6.00 to 7.00 | > 7.00 | CC(C)c1nc(-c2ccc(F)c(NS(=O)(=O)c3c(F)cccc3F)c2)c(-c2ccnc(Nc3cccc(CCS(N)(=O)=O)c3)n2)s1 [Example 113] | 
18 |  | > 7.00 | > 7.00 | CC(C)c1nc(-c2cccc(NS(=O)(=O)c3cccs3)c2)c(-c2ccnc(Nc3ccc(N4CCOCC4)nc3)n2)s1 [Example 51] | 
19 |  | 6.00 to 7.00 | 6.00 to 7.00 | CC(=O)N1CCN(c2ccc(Nc3nccc(-c4sc(C(C)C)nc4-c4cccc(NS(=O)(=O)c5cccc(C(F)(F)F)c5)c4)n3)cn2)CC1 [Example 70] | 
20 |  | > 7.00 | > 7.00 | O=S(=O)(Nc1cccc(-c2nc(N3CCCC3)sc2-c2ccnc(Nc3ccc(N4CCN(CCF)CC4)c(F)c3)n2)c1)c1c(F)cccc1F [Example 21, 2,6-Difluoro-N-{3-[5-[2-({3-fluoro-4-[4-(2-fluoroethyl)-1-piperazinyl]phenyl}amino)-4-pyrimidinyl]-2-(1-pyrrolidinyl)-1,3-thiazol-4-yl]phenyl}benzenesulfonamide] | 
21 |  | > 7.00 | > 7.00 | CS(=O)(=O)c1cccc(Nc2nccc(-c3sc(N4CCOCC4)nc3-c3cccc(NS(=O)(=O)c4c(F)cccc4F)c3F)n2)c1 [Example 130] | 
22 |  |  | 6.00 to 7.00 | O=S(=O)(Nc1cc(-c2nc(N3CCOCC3)sc2-c2ccnc(Nc3ccc4c(c3)OCCO4)n2)ccc1F)c1c(F)cccc1F [Example 127] | + (activity of >1 μM in A375P F11s tumor cells)
23 |  | > 7.00 | > 7.00 | CC(C)c1nc(-c2ccc(F)c(NS(=O)(=O)c3ccccc3F)c2)c(-c2ccnc(Nc3ccc(N4CCN(CCS(C)(=O)=O)CC4)c(F)c3)n2)s1 [Example 22, 2-Fluoro-N-{2-fluoro-5-[5-{2-[(3-fluoro-4-}4-[2-(methylsulfonyl)ethyl]-1-piperazinyl}phenyl)amino]-4-pyrimidinyl}-2-(1-methylethyl)-1,3-thiazol-4-yl]phenyl}benzenesulfonamide hydrochloride] | 
24 |  | 6.00 to 7.00 | > 7.00 | CCNc1nc(-c2ccc(F)c(NS(=O)(=O)c3c(F)cccc3F)c2)c(-c2ccnc(Nc3ccc(N4CCOCC4)nc3)n2)s1 [Example 166] | 
25 | > 7.00 | 6.00 to 7.00 |  | CCNc1nc(-c2cccc(NS(=O)(=O)c3ccccc3)c2)c(-c2ccnc(Nc3ccc(OCCN4CCCC4)c(F)c3)n2)s1 [Example 65] | 
26 |  | > 7.00 | > 7.00 | CN1CCC(c2nc(-c3ccc(F)c(NS(=O)(=O)c4c(F)cccc4F)c3)c(-c3ccnc(Nc4ccc(N5CCOCC5)nc4)n3)s2)CC1 [Example 106] | 
27 |  | > 7.00 | > 7.00 | CC(C)c1nc(-c2ccc(F)c(NS(=O)(=O)c3c(F)cccc3F)c2)c(-c2ccnc(Nc3ccc(N4CCN5CCOC[C@H]5C4)nc3)n2)s1 [Example 97] | 
28 |  | 6.00 to 7.00 | > 7.00 | CC(C)c1nc(-c2ccc(F)c(NS(=O)(=O)c3ccccc3C#N)c2)c(-c2ccnc(Nc3ccc(N4CCOCC4)nc3)n2)s1 [Example 107] | 
